Several values for one entry are separate records, joined by “and”; a condition that tells them apart may be missing. Equal values may be shown once. Where a name gives a salt, the structure may show the parent alone. Read-outs that look alike come from different tables or passages of the source.
Legend:
[1] = tested on: NO production in LPS-stimulated RAW 264.7 cells; experiment: Nitric oxide production inhibitory assay (Griess) in LPS-stimulated RAW 264.7 cells; type: cell-based, murine; conditions: Mus musculus, RAW264.7; LPS (2 μg/mL), 24 h
Procedure: (§1) Cancerous cell lines (MCF-7: human breast adenocarcinoma cells; HepG2: human hepatocellular carcinoma cells; Caco-2: human epithelial colorectal adenocarcinoma cells; A549: human epithelial lung adenocarcinoma cells), obtained from the American Type Culture Collection (ATCC) (Rockville, MD, United States of America), were cultured in Dulbecco’s Modified Eagle’s Medium (DMEM) high glucose (4.5 g/L) containing L-glutamine (4 mM) and sodium-pyruvate (Hyclone™) supplemented with 10% (v/v) fetal bovine serum (FBS) (Capricorn Scientific GmbH, South America), and incubated at 37°C with 5% CO2 in a humidified environment. African green monkey (Vero) kidney cells (also obtained from ATCC), a non-cancerous cell line, were grown in DMEM high glucose (4.5 g/L) containing L-glutamine (Lonza, Belgium) and supplemented with 5% FBS (Capricorn Scientific GmbH, South America) and 1% gentamicin (Virbac, RSA) in the same environment as cancer cells. The RAW 264.7 murine macrophage cells (obtained from ATCC) were cultured in DMEM high glucose (4.5 g/L) containing L-glutamine (Lonza, Belgium), supplemented with 10% FBS (Capricorn Scientific GmbH, South America) and 1% penicillin/streptomycin/fungizone (PSF) solution, and kept at 37°C in a 5% CO2 humidified environment.
Nitric oxide (NO) production was evaluated in lipopolysaccharide (LPS)-stimulated RAW 264.7 cells by measuring the influence of tested compounds on the accumulation of nitrite, an indicator of NO in the cell supernatant, which can be detected with Griess reagent (Merck, Darmstadt, Germany). Briefly, the RAW 264.7 cells at their exponential growth phase were seeded at a density of 2×10^4 cells per well in 96 well-microtiter plates, and they were incubated overnight at 37°C in a 5% CO2 humidified environment to allow attachment. […] Then, culture medium containing LPS (2 μg/mL) was added to each well and further incubated for 24 h at 37°C in a 5% CO2 humidified environment. Thereafter, 100 μL of cell supernatant from each well were transferred into a new 96-well microtiter plate and an equal volume of Griess reagent was added according to protocol described by the manufacturer. The microtiter plate was incubated for 10 min in the dark at room temperature, and the absorbance of the mixture was measured at 550 nm on a microplate reader (Synergy Multi-Mode Reader, BioTek, Winooski, United States of America). The quantity of nitrite was determined from a sodium nitrite standard curve, and the percentage of NO production was calculated based on the ability of each tested sample to inhibit nitric oxide production by LPS-stimulated RAW 264.7 cells compared to the control (cells treated with LPS without samples which was considered as 100% NO production). Additionally, the cell viability of treated cells was determined by using the MTT assay as previously described ([Mosmann, 1983]).

[2] = tested on: Vero cells; experiment: MTT antiproliferation assay, non-cancerous Vero cells; type: cell-based, African green monkey; conditions: Chlorocebus sabaeus, Vero; 48 h, MTT
Procedure: as §1
(§2) The cancerous and non-cancerous cells were seeded at a density of 10^4 cells per well in 96-well microtiter plates, and they were incubated overnight at 37°C with 5% CO2 in a 5% CO2 humidified environment in order to allow the attachment of cells at the bottom of the plates. Then, the cells were exposed to increasing concentrations of compounds (100, 50, 25, 10 and 5 μg/mL) dissolved in dimethyl sulfoxide (DMSO) and further diluted in fresh culture medium. In this assay, the final concentration of DMSO in the culture medium was 0.5% used as negative control while doxorubicin hydrochloride (Pfizer, United States of America) was used as a positive control. The culture plates were incubated for 48 h at 37°C in a 5% CO2 humidified environment, after which the culture medium was discarded, and replaced by 200 µL of fresh culture medium with 30 µL of 3-(4,5-dimethylthiazol-2-yl)-2,5-diphenyl-2H-tetrazolium bromide (MTT) (5 mg/mL) dissolved in phosphate buffered saline ([Mosmann, 1983]). After 4 h of incubation, the medium was gently removed, and the formazan crystals were solubilized in 50 µL of DMSO. The absorbance was measured at 570 nm after shaking for 1 min on a microplate reader (Synergy Multi-Mode Reader, BioTek, Winooski, United States of America).
(§3) The cell viability rate was determined at each concentration of the compound as a percentage of cells treated with DMSO at 0.5% used as negative control. […] The selectivity index (Supporting Material) values were calculated for each compound by dividing the IC50 of non-cancerous cells by the IC50 of cancerous cells in the same units ([Mfotie Njoya et al., 2018]; [Mfotie Njoya et al., 2020]).

[3] = tested on: MCF-7 cells; experiment: MTT antiproliferation assay, MCF-7; type: cell-based, human; conditions: for IC50: Homo sapiens, MCF7, 48 h, MTT
Procedure: as §1, §2, §3

[4] = tested on: HepG2 cells; experiment: MTT antiproliferation assay, HepG2; type: cell-based, human; conditions: for IC50: Homo sapiens, HepG2, 48 h, MTT; for SI values HepG2: IC50 of non-cancerous Vero cells divided by IC50 of HepG2
Procedure: as §1, §2, §3

[5] = tested on: Caco-2 cells; experiment: MTT antiproliferation assay, Caco-2; type: cell-based, human; conditions: for IC50: Homo sapiens, Caco-2, 48 h, MTT
Procedure: as §1, §2, §3

[6] = tested on: A549 cells; experiment: MTT antiproliferation assay, A549; type: cell-based, human; conditions: for IC50: Homo sapiens, A549, 48 h, MTT
Procedure: as §1, §2, §3

[7] = biological target: T1, 15-LOX (Glycine max, UniProt P08170); experiment: Soybean 15-LOX inhibitory assay (FOX); type: biochemical; conditions: linoleic acid 140 μM, pH 7.4, 25°C
T1 construct: purchased Merck, Darmstadt, Germany
T1 sequence (P08170 1-839): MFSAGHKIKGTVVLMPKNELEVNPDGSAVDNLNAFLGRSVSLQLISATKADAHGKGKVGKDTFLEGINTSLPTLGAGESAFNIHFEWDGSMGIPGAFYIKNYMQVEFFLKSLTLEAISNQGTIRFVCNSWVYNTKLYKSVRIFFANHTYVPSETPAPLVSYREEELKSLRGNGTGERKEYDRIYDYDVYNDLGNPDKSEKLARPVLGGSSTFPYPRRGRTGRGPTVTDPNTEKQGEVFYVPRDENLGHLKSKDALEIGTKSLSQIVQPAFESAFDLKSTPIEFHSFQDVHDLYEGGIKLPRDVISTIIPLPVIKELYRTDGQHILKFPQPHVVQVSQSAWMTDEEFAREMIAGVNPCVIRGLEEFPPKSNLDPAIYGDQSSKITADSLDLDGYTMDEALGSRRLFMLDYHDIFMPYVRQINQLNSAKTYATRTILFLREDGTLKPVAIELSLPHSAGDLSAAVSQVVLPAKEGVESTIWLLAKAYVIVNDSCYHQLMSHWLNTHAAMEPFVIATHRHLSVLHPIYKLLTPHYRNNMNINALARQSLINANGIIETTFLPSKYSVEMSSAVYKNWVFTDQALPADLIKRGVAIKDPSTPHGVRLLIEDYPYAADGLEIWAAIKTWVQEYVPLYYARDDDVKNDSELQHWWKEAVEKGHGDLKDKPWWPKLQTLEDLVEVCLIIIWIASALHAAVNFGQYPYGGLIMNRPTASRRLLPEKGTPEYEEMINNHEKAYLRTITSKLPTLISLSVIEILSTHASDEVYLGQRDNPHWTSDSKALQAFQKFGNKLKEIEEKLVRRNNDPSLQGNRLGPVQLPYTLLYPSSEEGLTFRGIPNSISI
Procedure: This assay is based on the formation of the Fe^3+/xylenol orange (FOX) complex with maximal absorption at 560 nm ([Pinto et al., 2007]). Forty microliters of 15-LOX (final concentration: 200 UI/mL) from Glycine max (Merck, Darmstadt, Germany) was incubated with 20 µL of tested samples (100, 50, 25, 10, and 5 μg/mL) at 25°C for 5 min, with DMSO at 10% (v/v) being used as negative control. Thereafter, 40 µL of linoleic acid (final concentration, 140 μM) prepared in Tris-HCl buffer (50 mM, pH 7.4) was added, and the plates were further incubated at 25°C for 20 min in the dark. The assay was terminated by adding 100 μL of FOX reagent [sulfuric acid (30 mM), xylenol orange (100 μM), ferrous II) sulfate (100 μM), dissolved in methanol/water (9:1)], followed by the incubation of the plates at 25°C for 30 min in the dark. Finally, the absorbance was measured at 560 nm on a microplate reader (Epoch, BioTek, Winooski, United States of America). The blanks were made in the same way as tested samples except that the substrate was added after the FOX reagent. The 15-LOX inhibitory activity was calculated by using the following formula: 15−LOX inhibitory activity %=100−Abs sample−Abs blank/Abs negative control−Abs blank×100 (1)

[8] = read-out: IC50 values 15-LOX (converted)

Compound | IC50 [1] | IC50 [2] | IC50 [3] | SI values MCF7 ([3]; IC50 of non-cancerous Vero cells divided by IC50 of MCF-7) | IC50 [4] | SI values HepG2 [4] | IC50 [5] | SI values Caco-2 ([5]; IC50 of non-cancerous Vero cells divided by IC50 of Caco-2) | IC50 [6] | SI values A549 ([6]; IC50 of non-cancerous Vero cells divided by IC50 of A549) | IC50 ([7]; IC50 values 15-LOX) | IC50 [7, 8]
O=c1c(O)c(-c2ccc(O)c(O)c2)oc2cc(O)cc(O)c12 [Quercetin, quercetin, reference compound] | 12.8 µg/mL and 42.5 µM | – | – | – | – | – | – | – | – | – | – | –
COc1cccc2c1C(=O)c1c(O)c3c(c(O)c1C2=O)C[C@@](O)(C(=O)CO)C[C@@H]3O[C@H]1C[C@H](N)[C@H](O)[C@H](C)O1 [Doxorubicin, doxorubicin hydrochloride, reference compound] | – | 4.85 ± 0.51 µM | 1.09 ± 0.06 µM | 4.45 | 0.56 ± 0.05 µM | 8.66 | 4.97 ± 0.74 µM | 0.98 | 0.71 ± 0.05 µM | 6.83 | – | –
C[C@H]1[C@H](C)CC[C@]2(C(=O)O)CC[C@]3(C(=O)O)C(=CC[C@@H]4[C@@]5(C)CC[C@H](O)C(C)(C)[C@@H]5CC[C@]43C)[C@H]12 [Compound 8, quinovic acid] | 86 µg/mL and 177 µM | > 100 µg/mL and > 205 µM | 98 µg/mL and 201 µM | – | 100 µg/mL and 205 µM | – | 81.6 µg/mL and 168 µM | – | 204 µM and 99.5 µg/mL | – | 71.9 µM | –
CC1(C)CC[C@]2(C)CC=C3[C@]4(C)CC[C@H]5C(C)(C)[C@@H](O)CC[C@]5(C)[C@H]4CC[C@@]3(C)[C@@H]2C1 [Compound 4, taraxerol] | > 100 µg/mL and > 234 µM | > 100 µg/mL and > 234 µM | 81.3 µg/mL and 191 µM | – | 54.2 µg/mL and 127 µM | – | > 100 µg/mL and > 234 µM | – | 177 µM and 75.6 µg/mL | – | – | > 234 µM
C[C@H]1[C@H](C)CC[C@]2(C)CC[C@]3(C)C(=CC[C@@H]4[C@@]5(C)CC[C@H](O)C(C)(C)[C@@H]5CC[C@]43C)[C@H]12 [Compound 5, α-amyrin (3β-hydroxy-urs-12-en-3-ol)] | > 100 µg/mL and > 234 µM | > 100 µg/mL and > 234 µM | 82.8 µg/mL and 194 µM | – | 84.5 µg/mL and 198 µM | – | > 100 µg/mL and > 234 µM | – | 217 µM and 92.7 µg/mL | – | – | > 234 µM
C[C@@H]1CC[C@]2(C(=O)O)CC[C@]3(C(=O)O)C(=CCC4[C@@]5(C)CC[C@H](O)C(CO)(CO)C5CC[C@]43C)C2[C@H]1C (stereo partly shown) [Compound 3, chletric acid] | > 100 µg/mL and > 187 µM | > 100 µg/mL and > 187 µM | > 100 µg/mL and > 187 µM | – | 80 µg/mL and 150 µM | – | > 100 µg/mL and > 187 µM | – | > 187 µM and > 100 µg/mL | – | – | 42.4 µM and 41.2 µM
CC1(C)CC[C@]2(CO)CC[C@]3(C)C(=CC[C@@H]4[C@@]5(C)CC[C@H](O)C(C)(C)[C@@H]5CC[C@]43C)[C@@H]2C1 [Compound 7, erythrodiol] | 95.6 µg/mL and 216 µM | 84 µg/mL and 190 µM | > 100 µg/mL and > 226 µM | – | 73.9 µg/mL and 167 µM | 1.13 | > 100 µg/mL and > 226 µM | – | > 226 µM and > 100 µg/mL | – | – | 147 µM

From publication PMC10320002, “In vitro antiproliferative, anti-inflammatory effects and molecular docking studies of natural compounds isolated from Sarcocephalus pobeguinii (Hua ex Pobég)” (Frontiers in Pharmacology, 2023)
